These results are taken from patent publication EP4818155A1, “AZOBENZENE-[…], PROTEIN-COUPLED DRUG […], AND PHARMACEUTICAL USE THEREOF” (priority 2023, dated 2025).

A short description of data set [1]: Distribution and metabolism in blood, tissues and tumour. Format: in vivo, mice. As to conditions: for area under the drug-time curve as share of that in tumors: after compound III-2 25 mg/kg. The procedure: The present example evaluated distribution and metabolism of compound III-2. SKOV3 ovarian cancer tumor-bearing mice were randomly divided into 6 groups. After tail vein injection with a single dose of compound III-2 (25 mg/kg), the mice were euthanized at the predetermined time points of 6 h, 24h, 72 h, 96 h, 168 h, 192 h in order, and blood, heart, liver, spleen, lung, and tumor samples were collected. The blood and tissue samples were stored at -80 °C for further analysis. […] At 96 h after the administration, Cys-II-2 was hardly detected in heart, liver, spleen, and lung. The peak concentration and area under the curve of the cytotoxin MMAE in the tumor were 293 times and 941 times those in peripheral blood, respectively, further proving that the excellent targeting capability of compound III-2. The area under the drug-time curve of MMAE in heart, liver, spleen and lung were 11%, 47%, 5% and 7% of area under the drug-time curve in tumors, respectively. […] Table 5 Concentration of Cys-II-2 in each group

The subject of a further data set is MDA-MB-231. The data set is described as follows: In vitro cytotoxicity (CellTiter Glo). The data set is classed as cell-based. To be noted: Homo sapiens, hypoxic conditions (0.1% O2), HER2-, read-out: EC50 (cell proliferation inhibitory activity). As to the method: (§1) The test procedure was shown as follows: • 1. Thawing Cell • Cryopreserved target cells was thawed by gentle agitation of the cryovial in a 37 °C water bath; • after thawing, the cryovial was removed from the water bath and decontaminated by spraying or immersing in 70% ethanol; • the cells in the cryovial were transferred into a centrifuge tube containing 9 mL of complete DMEM culture medium, followed by centrifugation at 200 g for 5 min; • the cells were resuspended with culture medium, and precipitated and seeded into a 75 cm^2 culture flask; • the cells were cultured in a Galaxy® CO2 incubator (48R, #CO48312044) under standard culture conditions of 37 °C, 20% oxygen and 5% carbon dioxide. • 2. Spreading Cell • Cells were subcultured three times per week at a ratio of 1:4 in a culture medium supplemented with 10% FBS (heat inactivated) and a 1% Penicillin-Streptomycin solution; • for cell passaging, adherent cells were first rinsed with 3 mL of trypsin/EDTA solution (3 mL). Then, 3 mL of trypsin/EDTA solution was added to the T75 culture flask, and the flask was gently rotated to ensure uniform coverage of the cell. The cells were incubated at 37 °C until complete cell detachment was achieved. Cell detachment was verified under a microscope, then an equal volume of the cell culture medium was added to inactivate the trypsin, and the separated cells were collected, centrifuged at 200 g for 5 minutes, and then re-suspended in a fresh culture medium. • 3. Inoculating cell • The cells were collected and counted; • 100 µ L of a cell suspension with adjusted density were inoculated to a 96-well cell culture plate, and the final cell density was about from 5000 cells/well to 10000 cells/well; • The culture plate was covered and incubated in a 5% CO2 incubator with 20% oxygen at 37 °C for 24 h. • 4. […] Co-incubation of cells with test compounds The culture medium in the 96 wells plate inoculated with cells was discarded, 150 µL of fresh culture medium was added to each well, and then 50 µL of the prepared test compounds were added to the 96-well plate. After the cells were co-incubated with the compounds in an incubator under conditions of 37 °C, 5% CO2, and 0.1% O2 for 24 h. After incubation, the drug-containing medium was removed, and the cells were rinsed with a fresh culture medium. Then the cells were placed in an incubator at 37 °C, 5% CO2, and 20% O2 and continuously cultured for an additional 72 h or 120 h. • 6. Reading plate • The plate was taken out of the incubator and equilibrated for 15 minutes at room temperature; • prior to the experiment, the CellTiter Glo reagent was incubated at 37 °C; • The detection solution was prepared by diluting CellTiter-Glo reagent with PBS at a volume ratio of 3:7, and the diluted solution was added into the wells to be tested; • the plate was then shaken at room temperature for 8 min, and allowed to stand for 2 min, and then signals were detected using an EnSpire reader. • 7.
On the technique in general: Cellular ATP, detected with luciferase, serves as a proxy for viable cell number.

For the next data set, the system named is MCF-7. The data set is described as follows: In vitro cytotoxicity (CellTiter Glo). To be noted: Homo sapiens, MCF7; hypoxic conditions (0.1% O2), HER2-; read-out: EC50 (cell proliferation inhibitory activity). The data set is classed as cell-based. As to the method: as §1
The subject of the next data set is SKBR3. The data set is described as follows: In vitro cytotoxicity (CellTiter Glo). To be noted: Homo sapiens, SK-BR-3, read-out: EC50 (cell proliferation inhibitory activity). Format: cell-based. The procedure:
as §1

A further data set deals with NCI-N87. The data set can be described thus: In vitro cytotoxicity (CellTiter Glo). The data set is classed as cell-based. As to conditions: Homo sapiens, hypoxic conditions (0.1% O2), HER2+, read-out: EC50 (cell proliferation inhibitory activity). As to the method: as §1
The next data set relates to BT-474. The data set can be described thus: In vitro cytotoxicity (CellTiter Glo). To be noted: Homo sapiens, BT-474, read-out: EC50 (cell proliferation inhibitory activity). Format: cell-based. As to the method:
as §1

Data set [2] deals with Staphylococcus aureus USA300. The data set is described as follows: Antibacterial activity against free bacteria (OD600nm). Format: cell-based. As to conditions: free USA300, 37 °C, 16 h to 18h. The procedure:
The present example evaluated the antibacterial efficacy of compound III-16 against free Staphylococcus aureus. 5 µL to 10 µL of a Staphylococcus aureus USA300 stock suspension stored at - 80 °C was taken and streaked on Brain Heart Infusion solid culture plates and incubated overnight at 37 °C in a biochemical incubator. A single USA300 colony was picked from the solid culture plates, inoculated into an appropriate volume of Brain Heart Infusion medium, and activated for 16 h to 18 h in a bacteria shaking incubator, then the bacterial suspension was centrifuged for 5 min at a rotating speed of 4000 rpm to collect the bacteria. The bacteria were resuspended in 1×PBS and the bacterial density was diluted to about […]. The diluted bacterial suspension was added to 96-well plates at 100 µL per well. Serially diluted compound III-16 and rifalogue were added to the bacterial suspension in the 96-well plates, and the bacteria was cultured in a biochemical incubator at 37 °C for 16 h to 18h, then the OD600nm was detected using a microplate reader. […] Without being limited by theories, it is speculated that the activity of compound III-16 against free bacteria may be stemed from the cleavage of the linker in compound III-16 by azoreductase extracellularly secreted by the bacteria, which releases rifalogue to exert antibacterial effect.

Setting [3] is: after compound III-2 25 mg/kg single tail vein injection.

Square brackets hold non-standard residues; d marks the D form. Peptide text beside a SMILES is read from it. * marks the point of attachment. Dolaproine = CO[C@@H]([C@@H]1CCCN1)[C@@H](C)C(=O)O; Dil = CC[C@H](C)[C@H](NC)[C@@H](CC(=O)O)OC; X1 = C[C@@H](N*)[C@@H](O)c1ccccc1; NMeV = CN[C@H](C(=O)O)C(C)C

For the compound `CC[C@H](C)[C@@H]([C@@H](CC(=O)N1CCC[C@H]1[C@H](OC)[C@@H](C)C(=O)N[C@H](C)[C@@H](O)c1ccccc1)OC)N(C)C(=O)[C@@H](NC(=O)[C@@H](NC)C(C)C)C(C)C` [MMAE] (H-[NMeV]V[Dil][Dolaproine]-X1), the “Concentration of MMAE” value is given as 1.54 ng/g or ng/mL in data set [1] (Blood, 6 h, after compound III-2 25 mg/kg single tail vein injection); 0.51 ng/g or ng/mL in data set [1] (Blood, 24 h, after compound III-2 25 mg/kg single tail vein injection); 0.23 ng/g or ng/mL in data set [1] (Blood, 72 h, after compound III-2 25 mg/kg single tail vein injection); 0.12 ng/g or ng/mL in data set [1] (Blood, 96 h, after compound III-2 25 mg/kg single tail vein injection); 0.10 ng/g or ng/mL in data set [1] (Blood, 168 h, after compound III-2 25 mg/kg single tail vein injection); “BQL” in data set [1] (Blood, 192 h, after compound III-2 25 mg/kg single tail vein injection). Also, the “Concentration of MMAE” value in data set [1] (Heart, 6 h, after compound III-2 25 mg/kg single tail vein injection) was 112.72 ng/g or ng/mL; in data set [1] (Heart, 24 h, after compound III-2 25 mg/kg single tail vein injection) it was 71.97 ng/g or ng/mL; in data set [1] (Heart, 72 h, after compound III-2 25 mg/kg single tail vein injection), 32.46 ng/g or ng/mL; in data set [1] (Heart, 96 h, after compound III-2 25 mg/kg single tail vein injection) it was 17.99 ng/g or ng/mL; in data set [1] (Heart, 168 h, after compound III-2 25 mg/kg single tail vein injection), 2.70 ng/g or ng/mL; in data set [1] (Heart, 192 h, after compound III-2 25 mg/kg single tail vein injection) it was 0.80 ng/g or ng/mL. Besides, the “Concentration of MMAE” value in data set [1] (Liver, 6 h, after compound III-2 25 mg/kg single tail vein injection) is recorded as 348.31 ng/g or ng/mL; in data set [1] (Liver, 24 h, after compound III-2 25 mg/kg single tail vein injection) it was 269.21 ng/g or ng/mL; in data set [1] (Liver, 72 h, after compound III-2 25 mg/kg single tail vein injection), 115.44 ng/g or ng/mL; in data set [1] (Liver, 96 h, after compound III-2 25 mg/kg single tail vein injection) it was 101.72 ng/g or ng/mL; in data set [1] (Liver, 168 h, after compound III-2 25 mg/kg single tail vein injection), 26.86 ng/g or ng/mL; in data set [1] (Liver, 192 h, after compound III-2 25 mg/kg single tail vein injection) it was 10.07 ng/g or ng/mL. Further, the “Concentration of MMAE” value in data set [1] (Lung, 6 h, after compound III-2 25 mg/kg single tail vein injection) is 22.96 ng/g or ng/mL; in data set [1] (Lung, 24 h, after compound III-2 25 mg/kg single tail vein injection), 12.85 ng/g or ng/mL; in data set [1] (Lung, 72 h, after compound III-2 25 mg/kg single tail vein injection), 19.79 ng/g or ng/mL; in data set [1] (Lung, 96 h, after compound III-2 25 mg/kg single tail vein injection) it was 43.95 ng/g or ng/mL; in data set [1] (Lung, 168 h, after compound III-2 25 mg/kg single tail vein injection) it was 1.93 ng/g or ng/mL; in data set [1] (Lung, 192 h, after compound III-2 25 mg/kg single tail vein injection), 1.04 ng/g or ng/mL. The “Concentration of MMAE” value is given as 21.29 ng/g or ng/mL in data set [1] (Spleen, 6 h, after compound III-2 25 mg/kg single tail vein injection); 19.80 ng/g or ng/mL in data set [1] (Spleen, 24 h, after compound III-2 25 mg/kg single tail vein injection); 20.24 ng/g or ng/mL in data set [1] (Spleen, 72 h, after compound III-2 25 mg/kg single tail vein injection); 13.60 ng/g or ng/mL in data set [1] (Spleen, 96 h, after compound III-2 25 mg/kg single tail vein injection); 3.82 ng/g or ng/mL in data set [1] (Spleen, 168 h, after compound III-2 25 mg/kg single tail vein injection); 1.40 ng/g or ng/mL in data set [1] (Spleen, 192 h, after compound III-2 25 mg/kg single tail vein injection). Moreover, the “Concentration of MMAE” value is 54.24 ng/g or ng/mL in data set [1] (Tumour, 6 h, after compound III-2 25 mg/kg single tail vein injection); 179.62 ng/g or ng/mL in data set [1] (Tumour, 24 h, after compound III-2 25 mg/kg single tail vein injection); 292.45 ng/g or ng/mL in data set [1] (Tumour, 72 h, after compound III-2 25 mg/kg single tail vein injection); 451.68 ng/g or ng/mL in data set [1] (Tumour, 96 h, after compound III-2 25 mg/kg single tail vein injection); 198.90 ng/g or ng/mL in data set [1] (Tumour, 168 h, after compound III-2 25 mg/kg single tail vein injection); 125.44 ng/g or ng/mL in data set [1] (Tumour, 192 h, after compound III-2 25 mg/kg single tail vein injection). In data set [1] (setting [3]), the “area under the curve in the tumor relative to peripheral blood” value worked out at 941 times. Besides, the “peak concentration in the tumor relative to peripheral blood” value in data set [1] (setting [3]) turned out to be 293 times. For the same compound, the “area under the drug-time curve as share of that in tumors” value in data set [1] (heart) stood at 11%; in data set [1] (liver), 47%; in data set [1] (lung), 7%; in data set [1] (spleen), 5%. The EC50 with MDA-MB-231 was determined as 0.57 nM; in the data set with MCF-7 it was 0.015 nM; with SKBR3, 0.058 nM; in the data set with NCI-N87 it was 0.24 nM; in the data set with BT-474 it was 0.032 nM.
`CO[C@H]1C=CO[C@@]2(C)Oc3c(C)c(O)c4c(=O)c(c5oc6cc(N7CCC(N(C)C)CC7)cc(=O)c6nc5c4c3=C2O)NC(=O)/C(C)=C\C=C/[C@H](C)[C@H](O)[C@@H](C)[C@@H](O)[C@@H](C)[C@H](OC(C)=O)[C@@H]1C` [rifalogue]: the MIC90 entry in data set [2] was “about 1.4 nM”.
